Results published in publication PMC7922932, “Molecular Dissection of Escherichia coli CpdB: Roles of the N Domain in Catalysis and Phosphate Inhibition, and of the C Domain in Substrate Specificity and Adenosine Inhibition” (International Journal of Molecular Sciences, 2021).
“And” between values parts separate entries of the source, which are not always exact repeats. Equal values may be shown once. Read-outs that look alike come from different tables or passages of the source.

Key:
[1] = biological target: T1, CpdB_Ndom (N-terminal domain of CpdB) (Escherichia coli, UniProt P08331, D305N/I97V/M87I); format: biochemical; conditions: for K M / k cat / k cat /K M: CpdB_Ndom, substance is the substrate, mean ± SD of three experiments; for Activity of CpdB_Ndom on substrate (hydrolytic rate): fixed 750 µM substrate concentration
T1 construct: GST (N, cleaved yes); made in house; host or cells: E. coli BL21
T1 sequence (P08331 20-354 M87I/I97V/D305N): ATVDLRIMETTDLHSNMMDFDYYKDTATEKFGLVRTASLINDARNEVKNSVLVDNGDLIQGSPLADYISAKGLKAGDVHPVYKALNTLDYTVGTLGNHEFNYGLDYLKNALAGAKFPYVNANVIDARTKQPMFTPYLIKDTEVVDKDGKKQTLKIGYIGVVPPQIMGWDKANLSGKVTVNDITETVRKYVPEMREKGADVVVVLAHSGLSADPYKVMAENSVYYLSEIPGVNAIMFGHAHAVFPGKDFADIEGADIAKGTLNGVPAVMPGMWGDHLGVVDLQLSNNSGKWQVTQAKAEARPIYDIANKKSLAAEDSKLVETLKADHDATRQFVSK
Experimental: With all the detectably hydrolyzed substrates, saturation kinetics was studied and parameters kcat and KM were determined from Michaelis-Menten plots (Table 1).
The same assay was used with 2′,3′- or 3′,5′-cyclic nucleotides, CDP-choline and bis-4-NPP except that an excess of alkaline phosphatase was included in the reaction mixture as auxiliary enzyme.
Datasets obtained with different substrates in the absence of inhibitors were used to derive kcat and KM values by adjusting the Michaelis-Menten equation to the experimental points by non-linear regression.

Mature CpdB [2] = biological target: T2, Mature CpdB (Escherichia coli, UniProt P08331); design: A structural model of mature CpdB (aa 20–647) was built; GST (N, cleaved yes); made in house; host or cells: E. coli BL21; conditions: substance is the substrate; cited from earlier work
T2 sequence (P08331 20-647): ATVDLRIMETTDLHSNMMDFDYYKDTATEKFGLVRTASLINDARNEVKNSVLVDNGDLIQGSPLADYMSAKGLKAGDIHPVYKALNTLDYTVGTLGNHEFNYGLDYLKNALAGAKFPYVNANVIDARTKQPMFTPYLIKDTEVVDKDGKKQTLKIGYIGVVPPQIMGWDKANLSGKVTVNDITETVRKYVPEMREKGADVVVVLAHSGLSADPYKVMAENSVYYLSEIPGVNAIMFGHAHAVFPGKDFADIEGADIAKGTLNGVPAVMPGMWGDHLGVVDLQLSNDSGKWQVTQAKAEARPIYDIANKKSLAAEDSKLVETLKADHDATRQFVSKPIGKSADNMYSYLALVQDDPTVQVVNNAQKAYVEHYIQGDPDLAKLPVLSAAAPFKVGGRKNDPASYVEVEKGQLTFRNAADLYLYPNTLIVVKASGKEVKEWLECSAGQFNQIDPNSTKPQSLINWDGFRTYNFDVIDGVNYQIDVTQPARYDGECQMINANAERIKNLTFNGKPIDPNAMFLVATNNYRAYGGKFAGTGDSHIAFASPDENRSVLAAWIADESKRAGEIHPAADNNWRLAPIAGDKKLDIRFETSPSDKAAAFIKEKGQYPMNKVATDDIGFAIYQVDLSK

CpdB_Ndom [3] = biological target: T3, CpdB_Ndom (Escherichia coli, UniProt P08331, D305N/I97V/M87I); format: biochemical; conditions: CpdB_Ndom; for IC50: 750 µM bis-4-NPP as the substrate, single illustrative experiments; for Ki: substrate bis-4-NPP, estimated from inhibitor dose-response curves (Figure 6), read-out: Inhibition constant (Ki)
T3 construct: GST (N, cleaved yes); made in house; host or cells: E. coli BL21
T3 sequence (P08331 20-354 M87I/I97V/D305N): as the sequence (P08331 20-354 M87I/I97V/D305N) above

CpdB_Ndom [4] = biological target: T3, CpdB_Ndom; assay: biochemical; conditions: CpdB_Ndom; substrate bis-4-NPP; global fit, complete competitive inhibition (Figure 7); read-out: Inhibition constant (Ki)
Experimental: Substrate saturation experiments were run in the absence and the presence of one of these inhibitors at fixed concentrations (Figure 7).
(§1) Reaction mixtures of 100 µL contained, besides the needed amount of enzyme (i.e., 0.02–0.05 µg/mL of mature CpdB, 2 µg/mL of a CpdB point mutant, or 0.2 µg/mL of CpdB_Ndom), 50 mM Tris [Tris(hydroxymethyl)aminomethane]-HCl pH 7.5 (adjusted at 37 °C), 2 mM MnCl2, 0.1 mg/mL bovine serum albumin, and the indicated concentrations of bis-4-NPP and the compound tested as inhibitor. Incubations performed at 37 °C were stopped by addition of 0.5 mL of 200 mM Tris, pH 8.9, 5 mM EDTA (ethylenediaminetetraacetate), immediately followed by A405 measurement (ε = 18.1 mM^−1 cm^−1). This termination procedure was used instead of the addition of a high NaOH concentration, to avoid the known formation of brown precipitates of air-oxidized Mn^2+ hydroxide. On occasions, when a higher sensitivity was needed, reaction mixtures of 500 µL were implemented and termination was performed with 0.1 mL 1M Tris, pH 8.9, 30 mM EDTA.

Mature CpdB [5] = biological target: T2, Mature CpdB; conditions: for Ki: read-out: Inhibition constant (Ki), mature CpdB, substrate 3′-AMP, global fit, mixed partial inhibition (Figure 5)
Source text: In this approach, inhibitors were used as probes for the relevance of those enzyme sites, irrespective of the physiological character and concentrations of the compounds used.
(§3) The procedures and detailed conditions to measure the initial rates of phosphohydrolytic reactions were as earlier described [4]. […] The same assay was used with 2′,3′- or 3′,5′-cyclic nucleotides, CDP-choline and bis-4-NPP except that an excess of alkaline phosphatase was included in the reaction mixture as auxiliary enzyme.
The procedures followed to derive kinetic parameters kcat, KM and Ki from initial rate vs. substrate concentration datasets, either in the presence or the absence of inhibitor, were as described elsewhere [49]. Datasets obtained with different substrates in the absence of inhibitors were used to derive kcat and KM values by adjusting the Michaelis-Menten equation to the experimental points by non-linear regression. […] Each one of these equations was simultaneously adjusted (global fit) by nonlinear regression to the three saturation curves of each inhibition experiment, using the Solver function of Microsoft Excel. During the adjustments, Vmax, KM and Ki were left to fluctuate. […] In each set of experiments, the type of inhibition that gave the best fit was used as the model to estimate Ki values.

Mature CpdB [6] = biological target: T2, Mature CpdB; assay: biochemical; format: biochemical; design: A structural model of mature CpdB (aa 20–647) was built; GST (N, cleaved yes); made in house; host or cells: E. coli BL21; conditions: mature CpdB; for IC50: 750 µM bis-4-NPP as the substrate, single illustrative experiments, read-out: IC50; for Ki: substrate bis-4-NPP, global fit, mixed partial inhibition (Figure 5), values without SD are single experiments, read-out: Inhibition constant (Ki)
Experimental: as §1

His^117Ala-CpdB = biological target: T4, His^117Ala-CpdB (Escherichia coli, UniProt P08331, D305N/H117A/I514V/I97V/M87I/N471D/S472N); format: biochemical; conditions: for Catalytic efficiency (kcat/KM) lower than wild-type mature CpdB: His^117Ala-CpdB versus wild-type mature CpdB, same substrate; for K M / k cat / k cat /K M: His^117Ala-CpdB, substance is the substrate
T4 construct: A structural model of mature CpdB (aa 20–647) was built; GST (N, cleaved yes); made in house; host or cells: E. coli BL21
T4 sequence (P08331 20-647 M87I/I97V/H117A/D305N/N471D/S472N/I514V): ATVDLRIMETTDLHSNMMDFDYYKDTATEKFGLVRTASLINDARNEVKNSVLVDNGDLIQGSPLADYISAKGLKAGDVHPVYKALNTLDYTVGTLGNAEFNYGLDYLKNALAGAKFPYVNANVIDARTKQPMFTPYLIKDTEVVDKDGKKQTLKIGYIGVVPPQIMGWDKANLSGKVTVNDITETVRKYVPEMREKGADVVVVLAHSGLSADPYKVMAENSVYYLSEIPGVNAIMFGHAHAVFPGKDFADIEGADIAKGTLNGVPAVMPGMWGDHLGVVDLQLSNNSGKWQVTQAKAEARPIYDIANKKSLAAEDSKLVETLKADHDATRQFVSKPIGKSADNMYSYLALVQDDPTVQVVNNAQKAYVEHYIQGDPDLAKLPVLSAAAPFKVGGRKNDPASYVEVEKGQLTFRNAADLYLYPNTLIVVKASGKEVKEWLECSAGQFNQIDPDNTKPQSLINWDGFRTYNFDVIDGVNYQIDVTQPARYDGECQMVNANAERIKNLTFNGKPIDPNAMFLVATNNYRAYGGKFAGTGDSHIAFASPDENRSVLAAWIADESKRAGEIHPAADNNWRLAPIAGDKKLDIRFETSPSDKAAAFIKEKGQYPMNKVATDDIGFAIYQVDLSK
Source text: (§2) The role of the possible catalytic and substrate-binding sites was additionally tested by the preparation of two point mutants of the mature CpdB protein. On the one hand, the mutation His^117Ala modified the histidine residue conserved in the N domain (Figure 1b) with respect to UshA, where it has been proposed to be part of the catalytic core structure and to act as a general base that facilitates the nucleophilic attack by deprotonating a water molecule, and to participate in the stabilization of the transition state. […] On the other hand, mutation Tyr^544Ala modified one of the aromatic residues of CpdB which are conserved in the C domain with respect to the UshA phenylalanine residues that form a stacked sandwich with the adenine ring of the substrate.

Tyr^544Ala-CpdB [7] = format: biochemical, Escherichia coli; conditions: Tyr^544Ala-CpdB versus wild-type mature CpdB
Source text: as §2

Tyr^544Ala-CpdB [8] = biological target: T5, Tyr^544Ala-CpdB (Escherichia coli, UniProt P08331, D305N/I514V/I97V/M87I/N471D/S472N/Y544A); format: biochemical; conditions: Tyr^544Ala-CpdB; substance is the substrate
T5 construct: A structural model of mature CpdB (aa 20–647) was built; GST (N, cleaved yes); made in house; host or cells: E. coli BL21
T5 sequence (P08331 20-647 M87I/I97V/D305N/N471D/S472N/I514V/Y544A): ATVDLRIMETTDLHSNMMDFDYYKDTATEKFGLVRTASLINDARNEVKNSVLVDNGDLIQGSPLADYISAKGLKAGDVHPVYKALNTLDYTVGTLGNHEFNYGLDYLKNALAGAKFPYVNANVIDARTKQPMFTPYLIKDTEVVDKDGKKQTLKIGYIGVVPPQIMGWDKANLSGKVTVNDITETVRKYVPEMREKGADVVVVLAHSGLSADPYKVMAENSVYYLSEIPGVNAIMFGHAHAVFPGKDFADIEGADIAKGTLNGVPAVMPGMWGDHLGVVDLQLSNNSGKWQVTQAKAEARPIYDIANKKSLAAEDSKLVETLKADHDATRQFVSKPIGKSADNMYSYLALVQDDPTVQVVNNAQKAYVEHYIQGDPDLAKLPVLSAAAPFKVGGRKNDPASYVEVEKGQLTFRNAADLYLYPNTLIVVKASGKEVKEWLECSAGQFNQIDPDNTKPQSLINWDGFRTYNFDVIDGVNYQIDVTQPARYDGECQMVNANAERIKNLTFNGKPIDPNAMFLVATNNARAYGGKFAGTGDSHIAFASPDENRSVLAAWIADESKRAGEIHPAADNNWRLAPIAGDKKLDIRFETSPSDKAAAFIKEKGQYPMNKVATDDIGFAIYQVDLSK
Source text: as §2

CpdB_Ndom [9] = biological target: T3, CpdB_Ndom; assay: Products of the hydrolysis of cyclic (di)nucleotides by CpdB_Ndom (HPLC); format: biochemical; conditions: 2′,3′-cAMP at 500 µM
Source text: as §3

| Structure (SMILES) | K M [1] [µM] | K M (Mature CpdB [2]) [µM] | k cat [1] [s⁻¹] | k cat /K M [1] | k cat (Mature CpdB [2]) [s⁻¹] | k cat /K M (catalytic efficiency) (Mature CpdB [2]) | IC50 (CpdB_Ndom [3]) [µM] | IC50 (Mature CpdB [6]) [µM] | Ki (Mature CpdB [6]) [µM] | other results |
| --- | --- | --- | --- | --- | --- | --- | --- | --- | --- | --- |
| Nc1ncnc2c1ncn2[C@@H]1O[C@@H]2COP(=O)(O)O[C@H]2[C@H]1O [3′,5′-cAMP] | 6900 ± 2600 | 4600 |  |  |  |  |  |  |  |  |
| Nc1nc2c(ncn2[C@@H]2O[C@@H]3COP(=O)(O)O[C@H]4[C@@H](O)[C@H](n5cnc6c(=O)[nH]c(N)nc65)O[C@@H]4COP(=O)(O)O[C@H]3[C@H]2O)c(=O)[nH]1 [c-di-GMP, 3′,5′-cyclic diguanosine monophosphate] | 250 ± 30 | 6 | 0.0003 ± 0.0001 | 1.2 ± 0.4 M⁻¹ s⁻¹ | 0.07 | 13,000 M^−1 s^−1 |  |  |  |  |
| Nc1ccn([C@@H]2O[C@H](CO)[C@H]3OP(=O)(O)O[C@H]32)c(=O)n1 [2′,3′-cCMP] | 180 ± 50 | 12 | 33 ± 5 | 200,000 ± 80,000 M^−1 s^−1 | 100 | 8,500,000 M^−1 s^−1 |  |  |  |  |
| Nc1ncnc2c1ncn2[C@@H]1O[C@@H]2COP(=O)(O)O[C@H]3[C@@H](O)[C@H](n4cnc5c(N)ncnc54)O[C@@H]3COP(=O)(O)O[C@H]2[C@H]1O [c-di-AMP, 3′,5′-cyclic diadenosine monophosphate] | 3400 ± 2200 | 15 | 0.012 ± 0.007 | 3.5 ± 0.1 M⁻¹ s⁻¹ | 0.40 | 29,000 M^−1 s^−1 |  |  |  |  |
| Nc1ncnc2c1ncn2[C@@H]1O[C@H](COP(=O)(O)O[C@H]2[C@@H](O)[C@H](n3cnc4c(N)ncnc43)O[C@@H]2COP(=O)(O)O)[C@@H](O)[C@H]1O [pApA, 5′-phosphoadenylyl-3′→5′-adenosine] | 230 ± 40 | 0.6 | 0.0004 ± 0.0001 | 1.8 ± 0.2 M⁻¹ s⁻¹ | 1.30 | 2,300,000 M^−1 s^−1 |  |  |  | Stronger loss of catalytic efficiency than on c-di-AMP caused by the deletion of the C domain ([1]; CpdB_Ndom versus mature CpdB): 100 fold |
| O=c1ccn([C@@H]2O[C@H](CO)[C@H]3OP(=O)(O)O[C@H]32)c(=O)[nH]1 [2′,3′-cUMP] | 630 ± 170 | 62 | 155 ± 32 | 250,000 ± 50,000 M^−1 s^−1 | 260 | 4,200,000 M^−1 s^−1 |  |  |  |  |
| Nc1ncnc2c1ncn2[C@@H]1O[C@H](COP(=O)(O)O)[C@@H](O)[C@H]1O [5′-AMP] |  |  |  |  |  |  | 560 | 110 | 14 | Ki (CpdB_Ndom [4]): 370 ± 50 µM; IC50 (Mature CpdB [5]): 900 µM; Ki (Mature CpdB [5]): 20 ± 8 µM; Activity of CpdB_Ndom on substrate (hydrolytic rate) [1]: absence of detectable activity |
| O=[N+]([O-])c1ccc(OP(=O)(O)Oc2ccc([N+](=O)[O-])cc2)cc1 [bis-4-NPP, bis-4-nitrophenylphosphate] | 1300 ± 80 | 96 | 164 ± 14 | 130,000 ± 7000 M^−1 s^−1 | 340 | 3.6 × 10^6 M^−1 s^−1 and 3,600,000 M^−1 s^−1 |  |  |  | Catalytic efficiency (kcat/KM) lower than wild-type mature CpdB (His^117Ala-CpdB): 60 fold; K M (His^117Ala-CpdB): 440 ± 90 µM; k cat (His^117Ala-CpdB): 26 ± 3 s⁻¹; k cat /K M (His^117Ala-CpdB): 60,000 ± 7000 M^−1 s^−1; KM increase by the Tyr^544Ala mutation (Tyr^544Ala-CpdB [7]): five-fold; K M (Tyr^544Ala-CpdB [8]): 430 ± 30 µM; k cat (Tyr^544Ala-CpdB [8]): 130 ± 34 s⁻¹; k cat /K M (Tyr^544Ala-CpdB [8]): 300,000 ± 100,000 M^−1 s^−1 |
| Nc1ncnc2c1ncn2[C@@H]1O[C@H](COP(=O)(O)OP(=O)(O)O)[C@@H](O)[C@H]1O [ADP] |  |  |  |  |  |  |  | 1100 | 60 |  |
| Nc1ncnc2c1ncn2[C@@H]1O[C@H](COP(=O)(O)OP(=O)(O)OP(=O)(O)O)[C@@H](O)[C@H]1O [ATP] |  |  |  |  |  |  | 8700 | 720 | 113 ± 19 | Ki (CpdB_Ndom [3]): 5700 µM |
| Nc1ncnc2c1ncn2[C@@H]1O[C@H](CO)[C@H]2OP(=O)(O)O[C@H]21 [2′,3′-cAMP] | 390 ± 170 | 27 | 73 ± 32 | 190,000 ± 13,000 M^−1 s^−1 | 190 | 7,300,000 M^−1 s^−1 | 840 | 56 | 5 ± 0.4 | Catalytic efficiency (kcat/KM) lower than wild-type mature CpdB (His^117Ala-CpdB): 5000 fold; K M (His^117Ala-CpdB): 126 ± 7 µM; k cat (His^117Ala-CpdB): 0.18 ± 0.02 s⁻¹; k cat /K M (His^117Ala-CpdB): 1500 ± 230 M⁻¹ s⁻¹; KM increase by the Tyr^544Ala mutation (Tyr^544Ala-CpdB [7]): 60 fold; K M (Tyr^544Ala-CpdB [8]): 1600 ± 550 µM; k cat (Tyr^544Ala-CpdB [8]): 190 ± 60 s⁻¹; k cat /K M (Tyr^544Ala-CpdB [8]): 140,000 ± 73,000 M^−1 s^−1; Ki (CpdB_Ndom [4]): 460 ± 50 µM; 2′-AMP as product of hydrolysis (CpdB_Ndom [9]): 15%; 3′-AMP as product of hydrolysis (CpdB_Ndom [9]): 85% |
| Nc1ncnc2c1ncn2[C@@H]1O[C@H](CO)[C@@H](OP(=O)(O)O)[C@H]1O [3′-AMP] | 880 ± 250 | 14 | 0.004 ± 0.0002 | 5 M⁻¹ s⁻¹ and 5.2 ± 1.0 M⁻¹ s⁻¹ | 176 |  | 4100 | 54 | 3.6 ± 0.2 | Activity of His^117Ala-CpdB on substrate (His^117Ala-CpdB): essentially inactive; KM increase by the Tyr^544Ala mutation (Tyr^544Ala-CpdB [7]): 60 fold; K M (Tyr^544Ala-CpdB [8]): 850 ± 110 µM; k cat (Tyr^544Ala-CpdB [8]): 160 ± 37 s⁻¹; Ki (CpdB_Ndom [4]): 3300 ± 550 µM; Stronger loss of catalytic efficiency than on 2′,3′-cAMP caused by the deletion of the C domain ([1]; CpdB_Ndom versus mature CpdB): 10^5 fold; Activity of CpdB_Ndom on substrate (hydrolytic rate) [1]: almost complete loss of activities |
| C[N+](C)(C)CCOP(=O)(O)OP(=O)([O-])OC[C@H]1O[C@@H](n2ccc(N)nc2=O)[C@H](O)[C@@H]1O [CDP-choline] | 2900 ± 1700 | 219 | 5.7 ± 3.5 | 1950 ± 130 M⁻¹ s⁻¹ | 0.51 | 2300 M⁻¹ s⁻¹ |  |  |  |  |
| Nc1nc2c(ncn2[C@@H]2O[C@H](CO)[C@H]3OP(=O)(O)O[C@H]32)c(=O)[nH]1 [2′,3′-cGMP] | 570 ± 160 | 25 | 58 ± 16 | 100,000 ± 13,000 M^−1 s^−1 | 84 | 3,500,000 M^−1 s^−1 |  |  |  |  |
| Nc1ncnc2c1ncn2[C@@H]1O[C@H](CO)[C@@H](O)[C@H]1OP(=O)(O)O [2′-AMP] |  |  |  |  |  |  | 920 | 100 | 8.8 ± 2 | Ki (CpdB_Ndom [3]): 600 µM; IC50 (Mature CpdB [5]): 320 µM; Ki (Mature CpdB [5]): 7.1 ± 3.2 µM; Activity of CpdB_Ndom on substrate (hydrolytic rate) [1]: absence of detectable activity |
